Tests used:
[1] = Physical stability on storage, XRPD pattern; type: physicochemical; conditions: stored 40° C./75% RH
Method: 3.1 XRPD Method • Details of XRPD method used in the tests are mentioned below: • X-ray Generator: Cu, Kα (λ=1.54179 Å). • Tube Voltage: 40 kV; Current: 40 mA. • Scanning Scope: 4 to 40 deg; • Sample rotation speed: 15 rpm. • Scanning rate: 10 deg/min
About 40 mg of scaled up amorphous sample prepared by solvent-anti-solvent precipitation (addition of water to acetone) as described in Example 6 was weighed into glass vials. The vials were stored under different testing conditions (25° C. closed vial, 25° C./60% RH, 40° C. closed vial and 40° C./75% RH) 1 week, 2 weeks, 4 weeks, and 3 months. The original scaled up amorphous form was used as a control. XRPD and mDSC were checked at the end of each time point.

[2] = Dynamic Vapor Sorption (DVS) / hygroscopicity; type: physicochemical; conditions: for Change In Mass (%) - ref, Desorption / Change In Mass (%) - ref, Sorption / Change In Mass (%) - ref, Hysteresis: 25° C.
Method: Details of DVS method used in the tests are mentioned below: • Samples (about 10 mg) were transferred into a DVS pan, the weight changes were recorded with respect to the atmospheric humidity at 25° C.
The following parameters were used: • Equilibrium: dm/dt: 0.01%/min. (for min: 10 min and max: 180 min). • Drying: 0% RH for 120 min. • RH (%) measurement step: 5%, • RH (%) measurement step scope: 0˜95˜0%.

[3] = DVS Cycle 1, target 10.0 % P/Po
[4] = DVS Cycle 1, target 15.0 % P/Po
[5] = DVS Cycle 1, target 20.0 % P/Po
[6] = DVS Cycle 1, target 25.0 % P/Po
[7] = DVS Cycle 1, target 30.0 % P/Po
[8] = DVS Cycle 1, target 35.0 % P/Po
[9] = DVS Cycle 1, target 40.0 % P/Po
[10] = DVS Cycle 1, target 45.0 % P/Po
[11] = DVS Cycle 1, target 50.0 % P/Po
[12] = DVS Cycle 1, target 55.0 % P/Po
[13] = DVS Cycle 1, target 60.0 % P/Po
[14] = DVS Cycle 1, target 65.0 % P/Po
[15] = DVS Cycle 1, target 70.0 % P/Po
[16] = DVS Cycle 1, target 75.0 % P/Po
[17] = DVS Cycle 1, target 80.0 % P/Po
[18] = DVS Cycle 1, target 85.0 % P/Po
[19] = DVS Cycle 1, target 90.0 % P/Po
[20] = DVS Cycle 1, target 95.0 % P/Po

Structure (SMILES): CCOc1cc([C@@H](CS(C)(=O)=O)N2C(=O)c3cccc(NC(C)=O)c3C2=O)ccc1OC [amorphous apremilast, N-[2-[(1S)-1-(3-ethoxy-4-methoxyphenyl)-2-(methylsulfonyl)ethyl]-2,3-dihydro-1,3-dioxo-1H-isoindol-4-yl]acetamide]
- XRPD Pattern ([1]; 3rd month): Amorphous
- XRPD Pattern ([1]; 4th week): Amorphous
- small spike in the XRPD ([1]; after three months): 13.5 degrees two theta [2θ°]
- Change In Mass (%) - ref, Desorption ([2]; DVS Cycle 1, target 0.0 % P/Po): −0.066%
- Change In Mass (%) - ref, Sorption ([2]; DVS Cycle 1, target 0.0 % P/Po): −0.010%
- Change In Mass (%) - ref, Desorption ([2]; DVS Cycle 1, target 5.0 % P/Po): 0.138%
- Change In Mass (%) - ref, Hysteresis ([2]; DVS Cycle 1, target 5.0 % P/Po): −0.045%
- Change In Mass (%) - ref, Sorption ([2]; DVS Cycle 1, target 5.0 % P/Po): 0.183%
- Change In Mass (%) - ref, Desorption [2, 3]: 0.308%
- Change In Mass (%) - ref, Hysteresis [2, 3]: −0.006%
- Change In Mass (%) - ref, Sorption [2, 3]: 0.314%
- Change In Mass (%) - ref, Desorption [2, 4]: 0.463%
- Change In Mass (%) - ref, Hysteresis [2, 4]: 0.030%
- Change In Mass (%) - ref, Sorption [2, 4]: 0.434%
- Change In Mass (%) - ref, Desorption [2, 5]: 0.606%
- Change In Mass (%) - ref, Hysteresis [2, 5]: 0.066%
- Change In Mass (%) - ref, Sorption [2, 5]: 0.540%
- Change In Mass (%) - ref, Desorption [2, 6]: 0.740%
- Change In Mass (%) - ref, Hysteresis [2, 6]: 0.107%
- Change In Mass (%) - ref, Sorption [2, 6]: 0.633%
- Change In Mass (%) - ref, Desorption [2, 7]: 0.860%
- Change In Mass (%) - ref, Hysteresis [2, 7]: 0.131%
- Change In Mass (%) - ref, Sorption [2, 7]: 0.730%
- Change In Mass (%) - ref, Desorption [2, 8]: 0.976%
- Change In Mass (%) - ref, Hysteresis [2, 8]: 0.155%
- Change In Mass (%) - ref, Sorption [2, 8]: 0.821%
- Change In Mass (%) - ref, Desorption [2, 9]: 1.090%
- Change In Mass (%) - ref, Hysteresis [2, 9]: 0.181%
- Change In Mass (%) - ref, Sorption [2, 9]: 0.909%
- Change In Mass (%) - ref, Desorption [2, 10]: 1.203%
- Change In Mass (%) - ref, Hysteresis [2, 10]: 0.200%
- Change In Mass (%) - ref, Sorption [2, 10]: 1.003%
- Change In Mass (%) - ref, Desorption [2, 11]: 1.311%
- Change In Mass (%) - ref, Hysteresis [2, 11]: 0.224%
- Change In Mass (%) - ref, Sorption [2, 11]: 1.087%
- Change In Mass (%) - ref, Desorption [2, 12]: 1.411%
- Change In Mass (%) - ref, Hysteresis [2, 12]: 0.238%
- Change In Mass (%) - ref, Sorption [2, 12]: 1.173%
- Change In Mass (%) - ref, Desorption [2, 13]: 1.514%
- Change In Mass (%) - ref, Hysteresis [2, 13]: 0.250%
- Change In Mass (%) - ref, Sorption [2, 13]: 1.263%
- Change In Mass (%) - ref, Desorption [2, 14]: 1.619%
- Change In Mass (%) - ref, Hysteresis [2, 14]: 0.258%
- Change In Mass (%) - ref, Sorption [2, 14]: 1.360%
- Change In Mass (%) - ref, Desorption [2, 15]: 1.730%
- Change In Mass (%) - ref, Hysteresis [2, 15]: 0.270%
- Change In Mass (%) - ref, Sorption [2, 15]: 1.460%
- Change In Mass (%) - ref, Desorption [2, 16]: 1.836%
- Change In Mass (%) - ref, Hysteresis [2, 16]: 0.338%
- Change In Mass (%) - ref, Sorption [2, 16]: 1.498%
- Change In Mass (%) - ref, Desorption [2, 17]: 1.940%
- Change In Mass (%) - ref, Hysteresis [2, 17]: 0.306%
- Change In Mass (%) - ref, Sorption [2, 17]: 1.634%
- Change In Mass (%) - ref, Desorption [2, 18]: 1.972%
- Change In Mass (%) - ref, Hysteresis [2, 18]: 0.208%
- Change In Mass (%) - ref, Sorption [2, 18]: 1.763%
- Change In Mass (%) - ref, Desorption [2, 19]: 1.956%
- Change In Mass (%) - ref, Hysteresis [2, 19]: 0.122%
- Change In Mass (%) - ref, Sorption [2, 19]: 1.834%
- Change In Mass (%) - ref, Desorption [2, 20]: 1.883%
- Change In Mass (%) - ref, Sorption [2, 20]: 1.883%
- Hygroscopicity Classification ([2]; based on DVS data, criterion at 25 ± 1° C. and 80 ± 2% RH): slightly hygroscopic

Reference: US9994522B2, “Amorphous form of apremilast” (MAPI PHARMA LTD., priority 2014, dated 2018)
